In ChEMBL document CHEMBL1122576 (J Med Chem, 1984):

Key:
Rattus norvegicus [1] = experiment: Dose that decreased galactitol accumulation by 50% in the sciatic nerve in the galactosemic rat model after administration for 4 days in the diet; 7.3+/-2.3 mg/(kg day); format: functional
Rattus norvegicus [2] = experiment: Dose that decreased sorbitol accumulation by 50% in the sciatic nerve in the galactosemic rat model after administration for 3 weeks in the diet; 4.8+/- 2.4 mg/(kg day); format: functional
Rattus norvegicus [3] = experiment: Dose that decreased galactitol accumulation by 50% in the sciatic nerve in the galactosemic rat model after administration for 4 days in the diet; format: functional
Rattus norvegicus [4] = experiment: Dose that decreased sorbitol accumulation by 50% in the sciatic nerve in the galactosemic rat model after administration for 3 weeks in the diet; format: functional
[5] = target: Aldo-keto reductase family 1 member B1 (Bos taurus, UniProt P16116); experiment: Inhibition of bovine lens aldose reductase with DL-glyceraldehyde as substrate

Structure (SMILES) | Dose (Rattus norvegicus [1]) [mg/kg/day] | Dose (Rattus norvegicus [2]) [mg/kg/day] | Dose (Rattus norvegicus [3]) [mg/kg/day] | Dose (Rattus norvegicus [4]) [mg/kg/day] | IC50 [5] [nM]
COc1ccc2c(C(=S)N(C)CC(=O)O)cccc2c1C(F)(F)F [TOLRESTAT] | 7.3 | 4.8 | – | – | –
O=C(O)CN1C(=O)c2cccc3cccc(c23)C1=O [ALRESTATIN] | – | – | ~900 | ~1000 | 2700
